Measured values: patent publication US12723235B2, “Method for expanding hepatocyte in vitro and application” (Center for Excellence in Molecular Cell Science, Chinese …, priority 2018, dated 2026)
Where two headings read alike, the source gives them in different places. Blank lines part the entries; values can stand above or below the molecule they belong to.

Tests used:
[1] = test system: human hepatocytes; experiment: Expansion of human hepatocytes in HM medium with, without or with replaced Wnt signaling pathway agonist (6 days); assay type: cell-based; settings: 50 ng/ml Wnt3a purified protein or CHIR 0.1 μM
Source text: (§1) A. Cell photographs of human hepatocytes cultured for 6 days in: HM medium containing Wnt3a conditioned medium, HM medium without Wnt3a conditioned medium, HM medium containing Wnt3a purified protein instead of Wnt3a conditioned medium, and HM medium containing CHIR instead of Wnt3a conditioned medium.
as §1, with “B. Fold of expansion” for “A. Cell photographs”
Cryopreserved human liver cells were purchased from Celsis In Vitro Technologies (Baltimore, MD, U.S.). The cryopreserved human hepatocytes were resuscitated in DMEM medium containing 10% serum, and seeded in a collagen-I-coated plate at 2*10^4 cells/cm^2. The culture plate was incubated at 37° C. in a 5% CO2, 5% O2 incubator. The medium was changed to the hepatocyte medium one day after seeding and every 3 days thereafter. After 6 days of culture, the fully grown cells were trypsinized and seeded in a collagen-I-coated plate at 3*10^4 cells/cm^2. The culture plate was incubated at 37° C. in a 5% CO2 and 5% O2 incubator.
The HM medium contains a variety of growth factors and small molecule compounds.

[2] = test system: ProliHHs
Source text: (§2) The fully grown proliferating human hepatocytes are trypsinized and re-suspended in the hepatocyte medium, and seeded in a non-attached 24-well plate (Elplasia, Japan) at 5*10^5 cells/well. One day later, the medium was replaced with the hepatocyte induction medium, and the cells will slowly aggregate into cell spheres. The medium was changed every 2 days, and the induced cells were collected 10 days after the induction.
(§3) • 1) Extract cellular RNA by Trizol (Invitrogen) or RNeasy FFPE Kit (Qiagen). • 2) Obtain cDNA by M-MLV reverse transcriptase (Promega) kit, using 1 μg Trizol-extracted RNA, or 1 μg or all (according to the particular amount) of the RNA extracted by RNeasy FFPE Kit. • 3) Perform real-time quantitative PCR using SYBR Premix Ex Taq kit (TaKaRa), and detect expression of genes with ABI StepOnePlus real-time PCR system (Applied Biosystems). All Q-PCR data were performed with at least 2 repeats.
(§4) For detecting urea secretion ability of the cultured cells, supernatants of cell culture were collected after 24-hour culture and analyzed by urea assay kit (Abnova) according to its protocol.
(§5) For measurement of CYP2B6 metabolism activity of the proliferating human hepatocytes, cells subjected 10 days of hepatic induction and freshly resuscitated human hepatocytes were incubated respectively in a medium containing 100 um bupropion. Supernatants of cell culture were present to RILD Liver Company to detect the production of CYP2B6 metabolites using mass spectrometry. Standard curves were drawn using commercially purchased standards.

[3] = test system: ProliHHs; experiment: In vitro hepatic maturation induction of ProliHHs (3D culture, 10 days; morphology, gene expression, CYP2B6 and urea metabolism); settings: components added to HM to give HIM
Source text: as §2, §3, §4, §5

Molecule: Oncostatin M [OSM]
role in hepatic maturation medium (metabolic maturation, inhibition of progenitor gene expression) [2]: key factors

B1: Wnt3a purified protein: Purified Wnt3a protein, Wnt signaling pathway agonist (stemimmune LLC) (protein, UniProt P56704 19-352, looked up)
Protein Wnt-3a: SYPIWWSLAVGPQYSSLGSQPILCASIPGLVPKQLRFCRNYVEIMPSVAEGIKIGIQECQHQFRGRRWNCTTVHDSLAIFGPVLDKATRESAFVHAIASAGVAFAVTRSCAEGTAAICGCSSRHQGSPGKGWKWGGCSEDIEFGGMVSREFADARENRPDARSAMNRHNNEAGRQAIASHMHLKCKCHGLSGSCEVKTCWWSQPDFRAIGDFLKDKYDSASEMVVEKHRESRGWVETLRPRYTYFKVPTERDLVYYEASPNFCEPNPETGSFGTRDRTCNVSSHGIDGCDLLCCGRGHNARAERRREKCRCVFHWCCYVSCQECTRVYDVHTCK
cell morphology and expansion fold compared with Wnt3a conditioned medium [1]: similar | expansion of human hepatocytes when replacing Wnt3a conditioned medium in HM medium [1]: could be expanded

Now from value to molecule, other results behind:

expansion of human hepatocytes when replacing Wnt3a conditioned medium in HM medium [1]: could be expanded
Molecule: Cc1c[nH]c(-c2cnc(NCCNc3ccc(C#N)cn3)nc2-c2ccc(Cl)cc2Cl)n1 [CHIR, CHIR99021]
cell morphology and expansion fold compared with Wnt3a conditioned medium [1]: similar

role in hepatic maturation medium (metabolic maturation, inhibition of progenitor gene expression) [2]: key factors
Molecule: C[C@@H]1C[C@H]2[C@@H]3CCC4=CC(=O)C=C[C@]4(C)[C@@]3(F)[C@@H](O)C[C@]2(C)[C@@]1(O)C(=O)CO [DEX, Dexamethasone]

role in hepatic maturation medium (metabolic maturation, inhibition of progenitor gene expression) [3]: key factors
Molecule: C=C[C@@]1(C)CC(=O)[C@]2(O)[C@@]3(C)[C@@H](O)CCC(C)(C)[C@@H]3[C@H](O)[C@H](OC(C)=O)[C@@]2(C)O1 [Forskolin]
